Active and inactive are the calls of the source. The rule behind the calls is not given here.
Tested on: M. tuberculosis H37Rv growth inhibition with meropenem
Assay: dose response, H37Rv, with and without meropenem (AID 434987);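 note: growth over 7 days at 37 °C before Alamar Blue read on day 9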
[1] = M. tuberculosis H37Rv growth inhibition, measured here: IC50 without meropenem
[2] = M. tuberculosis H37Rv growth inhibition, measured here: IC90 without meropenem
[3] = measured here: IC90 with meropenem

Row | Compound | IC50 | IC50 [1] [µM] | IC90 [2] [µM] | IC90 [3] [µM]
1 | COc1cc(SC)ccc1C(=O)Nc1ccc(C)cc1C | 38.3 µM | > 100 | > 100 | > 100
2 | CCOc1cc(/C=N\Nc2ccc([N+](=O)[O-])cc2)ccc1OCC(=O)Nc1ccc(C)c(C)c1 | 5.99 µM | > 100 | > 100 | > 12.5
3 | c1ccc(-c2oc3ncnc(NCCN4CCOCC4)c3c2-c2ccccc2)cc1 | > 100 µM (inactive) | > 100 | > 100 | > 100
4 | COC(=O)C1=C(C)NC(=O)/C1=C\c1cc(C)n(-c2cc(C)cc(C)c2)c1C | 88.9 µM (inactive) | 97.9 | > 100 | > 100
5 | CC#CC[N+](C)(C)CCCCCCCCCCCC | 49 µM (inactive) | 72.8 | > 100 | > 100
6 | COc1cccc(/C=N/NC(=O)c2cnccn2)c1O | 2.58 µM | 44.8 | > 100 | 13.9
7 | Cc1cc(C)n(-c2nc(-c3ccc(Cl)c(Cl)c3)cs2)n1 | 14.5 µM | > 100 | > 100 | > 100
8 | CCCCNC(=O)c1onc(CSc2ccc(OC)cc2)c1C(=O)O | 23.9 µM (inactive) | 46.4 | 53.1 | 27.2
9 | CCSc1nc2ccccc2c(=O)n1CCc1ccc(OC)c(OC)c1 | > 100 µM (inactive) | > 100 | > 100 | > 100
10 | N#Cc1ccc(NCC(=O)Nc2ccc(S(=O)(=O)N3CCCCC3)cc2)cc1 | > 100 µM (inactive) | > 100 | > 100 | > 100
11 | CCOc1cc(CNCCN(C)C)c(Cl)cc1OCC(=O)NCCc1ccccc1 | > 100 µM (inactive) | > 100 | > 100 | > 100
12 | COCCCn1c(=O)/c(=C\c2ccccc2OC(C)C)s/c1=C(/C#N)C(=O)Nc1ccc(C(=O)O)cc1 | 5.19 µM | 13.6 | > 100 | 18.5
13 | Cc1cc(Br)ccc1NC(=O)CN1C(=O)C2CC=CCC2C1=O (stereo not given) | 1 µM | 8.65 | 26.7 | 38.7
14 | CO/N=C(\C(=O)N[C@@H]1C(=O)N2C(C(=O)O)=C(COC(C)=O)CS[C@H]12)c1csc(N)n1 (stereo in doubt) | 10.3 µM | > 100 | > 100 | 41.7
15 | COc1ccc(C(=O)NC(=S)NC(C)(C)C)cc1Br | > 100 µM (inactive) | > 100 | > 100 | > 100
16 | COc1cc(C(=O)N/N=C/c2ccc(OC(=O)c3cccc(C)c3)cc2)ccc1O | 4.54 µM | 77.7 | > 100 | 53.4
17 | CSCC(=O)Nc1ccc(F)c(Cl)c1 | 10.1 µM (inactive) | 21.9 | > 100 | > 100
18 | C/C(=N\NC(=O)c1csc2ccccc12)c1ccc(O)cc1 | > 100 µM (inactive) | > 100 | > 100 | > 100
19 | COc1cc(C(=S)N2CCOCC2)ccc1OC(=O)c1ccc([N+](=O)[O-])cc1[N+](=O)[O-] | 3.24 µM (inactive) | 6.01 | 7.13 | 5.92
20 | CC(OC(=O)c1ccc([N+](=O)[O-])o1)C(=O)NC1CCCCC1C (stereo not given) | 15.6 µM (inactive) | 26.3 | 70.6 | > 100

Source: PubChem BioAssay AID434987 (Southern Research Specialized Biocontainment Screening …, 2010)
